Source: patent US20150282489A1, “SYNERGISTIC FUNGICIDAL COMPOSITIONS CONTAINING LACTOPEROXIDASE SYSTEM” (DSM IP ASSETS B.V., priority 2012, published 2015)

How the values were obtained:
[1] = tested on: powdery mildew spores (spores of Oidium neolycopersici); test: Treatment of tomato plants against mildew disease (Example 1, natamycin and lactoperoxidase system mixed before application); type: in vivo, Oidium neolycopersici on tomato plants
Method: (§1) Tomato plants were grown in a greenhouse using well known methods. Twenty-five days after planting, the tomato plants were inoculated with powdery mildew spores (spores of Oidium neolycopersici). Fourteen days after the tomato plants were inoculated with the spores, the plants were treated with: a) a composition comprising natamycin (1500 ppm), b) a composition comprising a lactoperoxidase system, or c) a composition comprising natamycin (1500 ppm) and a lactoperoxidase system (natamycin and the lactoperoxidase system were mixed before application to the tomato plants). As a control, untreated tomato plants were used. All compositions comprising natamycin comprised glycerol (2.5 ml/l ) and polyether trisiloxane (BREAK-TRU®; 0.25 ml/l ). The lactoperoxidase system comprised lactoperoxidase, potassium iodide, potassium thiocyanate and a hydrogen peroxide source. When the lactoperoxidase system was used alone, ADDIT, a rapeseed-oil based adjuvant, was added to the lactoperoxidase system. The tomato plants were sprayed with 2000 lof the respective composition per ha, corresponding to a rate of about 130 ml of the respective composition per plant. The trial was performed on four plots with each plot containing 5 tomato plants. Powdery mildew growth was assessed in a twofold manner: (i) the number of visible colonies on 2 marked leafs of each tomato plant were counted; and (ii) the antifungal activity (in %) of the individual and combined active ingredients was determined by calculating the reduction in mould growth observed on the marked leafs of the tomato plants that were treated with the antifungal composition in comparison to the mould growth on the marked leafs of the tomato plants that were treated with the control composition. The expected antifungal activity (E in %) of the combined antifungal composition comprising both active ingredients was calculated according to the Colby equation (Colby, 1967): E=X+Y−[(X·Y)/100] wherein X and Y are the observed antifungal activities (in %) of the individual active ingredients X and Y, respectively. If the observed antifungal activity (O in %) of the combination exceeds the expected antifungal activity (E in %) of the combination and the synergy factor O/E is thus >1.0, the combined application of the active ingredients leads to a synergistic antifungal effect.

[2] = tested on: powdery mildew spores (spores of Oidium neolycopersici); test: Treatment of tomato plants against mildew disease (Example 2, lactoperoxidase system applied first, natamycin after one hour); type: in vivo, Oidium neolycopersici on tomato plants
Method: as §1, with “with:” for “with: a) a composition comprising natamycin (1500 ppm), b) a composition comprising a lactoperoxidase system, or c) a composition comprising natamycin (1500 ppm) and a lactoperoxidase system (natamycin and the lactoperoxidase system were mixed before application to the tomato plants). As a control, untreated tomato plants were used.”, “effect. The experiment was done as described in Example 1, with the proviso that first of all the lactoperoxidase system was applied to the tomato plants and after one hour (when the tomato plants were dry again) the natamycin composition was applied.” for “effect.”

For `C[C@@H]1C/C=C/C=C/C=C/C=C/[C@H](O[C@@H]2O[C@H](C)[C@@H](O)[C@H](N)[C@@H]2O)C[C@@H]2O[C@](O)(C[C@@H](O)C[C@H]3O[C@@H]3/C=C/C(=O)O1)C[C@H](O)[C@H]2C(=O)O` [Natamcyin, natamycin], the “Change in visible fungal colonies at 9 days after application” value ([1]; 9 days after application of the respective compositions) was “increase in visible fungal colonies”, the “Average number of fungal colonies per tomato leaf, Day 9” value ([1]; 9 days after application, natamycin 1500 ppm, spray 2000 l/ha) was 11.9 and the “Average number of fungal colonies per tomato leaf, Day −1” value ([1]; one day before application of the composition (baseline), natamycin 1500 ppm, spray 2000 l/ha) was 6.1. For the same molecule, the “Average number of fungal colonies per tomato leaf, Day 9 corrected for Day −1” value ([1]; positive = increase, negative = decrease from day −1 to day 9, natamycin 1500 ppm) was 5.8, the “Change in visible fungal colonies at 9 days after application” value ([2]; 9 days after application, combination applied sequentially) was “increase in visible fungal colonies” and the “Average number of fungal colonies per tomato leaf, Day 9” value ([2]; 9 days after application, combination: lactoperoxidase system first, natamycin after one hour) was 11.9. For the same molecule, the “Average number of fungal colonies per tomato leaf, Day −1” value ([2]; one day before application (baseline), combination applied sequentially) was 6.1 and the “Average number of fungal colonies per tomato leaf, Day 9 corrected for Day −1” value ([2]; positive = increase, negative = decrease from day −1 to day 9, combination applied sequentially) was 5.8.
